Reference: US20260356860A1, “2-SUBSTITUTED 3,4A,5,7,8,8A-HEXAHYDRO-4H-THIOPYRANO[4,3-DJPYRIMIDIN-4-ONES FOR WOUND TREATMENT” (priority 2022, published 2026)

Experiments:
[1] = target: T1, Tankyrase 2 (TNKS2) (Homo sapiens, UniProt Q9H2K2); assay: TNK2 Binding Assay (Tankyrase 2 ribosylation, chemiluminescence); assay type: biochemical
T1 sequence (Q9H2K2 1-1166): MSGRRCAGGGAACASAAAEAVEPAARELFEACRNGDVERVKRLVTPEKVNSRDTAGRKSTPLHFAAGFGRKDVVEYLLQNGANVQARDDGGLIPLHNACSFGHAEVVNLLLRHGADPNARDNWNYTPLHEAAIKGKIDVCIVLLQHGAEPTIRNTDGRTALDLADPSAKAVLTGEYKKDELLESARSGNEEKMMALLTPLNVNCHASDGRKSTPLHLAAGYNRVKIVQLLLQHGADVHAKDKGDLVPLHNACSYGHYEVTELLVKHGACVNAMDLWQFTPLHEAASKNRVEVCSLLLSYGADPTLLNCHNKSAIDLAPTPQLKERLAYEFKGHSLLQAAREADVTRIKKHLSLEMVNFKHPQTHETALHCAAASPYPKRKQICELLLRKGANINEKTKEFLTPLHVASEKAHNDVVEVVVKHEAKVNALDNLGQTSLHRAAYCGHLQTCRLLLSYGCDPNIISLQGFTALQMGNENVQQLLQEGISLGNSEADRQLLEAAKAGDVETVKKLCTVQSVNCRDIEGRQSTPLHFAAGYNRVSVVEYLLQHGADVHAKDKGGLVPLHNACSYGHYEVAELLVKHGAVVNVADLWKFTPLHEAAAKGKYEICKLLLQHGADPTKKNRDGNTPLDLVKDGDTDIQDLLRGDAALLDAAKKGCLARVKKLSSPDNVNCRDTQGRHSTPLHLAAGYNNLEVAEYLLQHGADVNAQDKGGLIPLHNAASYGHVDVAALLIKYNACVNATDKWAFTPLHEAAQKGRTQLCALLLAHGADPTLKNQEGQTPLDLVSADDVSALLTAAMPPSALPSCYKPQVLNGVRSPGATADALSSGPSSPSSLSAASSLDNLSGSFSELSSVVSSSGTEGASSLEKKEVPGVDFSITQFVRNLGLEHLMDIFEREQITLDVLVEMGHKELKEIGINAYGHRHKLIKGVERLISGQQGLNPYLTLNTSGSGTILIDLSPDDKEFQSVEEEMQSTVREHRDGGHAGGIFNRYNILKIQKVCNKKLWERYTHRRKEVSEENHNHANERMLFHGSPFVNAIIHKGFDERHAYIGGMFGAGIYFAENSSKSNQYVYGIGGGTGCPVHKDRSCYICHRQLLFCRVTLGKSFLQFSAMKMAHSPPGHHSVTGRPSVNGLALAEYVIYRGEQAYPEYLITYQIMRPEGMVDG

[2] = test system: new porcine skin; assay: Energy peak of healed wound; assay type: in vivo; details: day 21; for Energy Peak / Energy Peak, Mean: topical
Procedure: Additional tests were performed including elasticity (Table 12); max force (Table 13); tensile strength (strain) (Table 14); energy peak (Table 15); rete-ridge formation; and collagen organization (plane polarized light) (FIG. 24) of the healed wound sites, described as follows.
A is saline (control), B is serum formulation (vehicle), C is GO-HA (vehicle), D is Compound 1; E is Compound 1+GO-HA; F is Compound 8; G is Compound 8+GO-HA; H is Compound 10; and J is Compound 10+GO-HA.
Energy Peak (N*mm) is the maximum force applied to a material over time. All compounds of Formula (I) tested with or without GO-HA ranged from 5% to 41% improvement in energy peak compared to the saline control. […] The vehicle, GO-HA, provided a 61% improvement in energy peak over the saline control.

SMILES	IC50 [1] [nM]	improvement in energy peak compared to the saline control [2] [%]	Energy Peak ([2]; individual value 1) [N*mm]	Energy Peak ([2]; individual value 2) [N*mm]	Energy Peak ([2]; individual value 3) [N*mm]	Energy Peak ([2]; individual value 4) [N*mm]	Energy Peak ([2]; individual value 5) [N*mm]	Energy Peak, Mean [2] [N*mm]
CC(C)(OCCO)c1ccc(-c2nc3c(c(=O)[nH]2)CSCC3)cc1 [Compound 8, 2-(4-(2-(2-hydroxyethoxy)propan-2-yl)phenyl)-3,5,7,8-tetrahydro-4H-thiopyrano[4,3-d]pyrimidin-4-one]	3.16	29	2946.121	5124.987	2632.780	2286.458	1294.14	2856.897
COC(=O)NCCOC(C)(C)c1ccc(-c2nc3c(c(=O)[nH]2)CSCC3)cc1 [Compound 18, methyl (2-((2-(4-(4-oxo-3,5,7,8-tetrahydro-4H-thiopyrano[4,3-d]pyrimidin-2-yl)phenyl)propan-2-yl)oxy)ethyl)carbamate]	4	–	–	–	–	–	–	–
O=c1[nH]c(-c2ccc(-c3ccc(Br)nc3)cc2)nc2c1CSCC2 [Compound 7, 2-(4-(6-bromopyridin-3-yl)phenyl)-3,5,7,8-tetrahydro-4H-thiopyrano [4,3-d]pyrimidin-4-one]	5	–	–	–	–	–	–	–
O=c1[nH]c(-c2ccc(B(O)O)cc2)nc2c1CSCC2 [Compound 1, (4-(4-oxo-3,5,7,8-tetrahydro-4H-thiopyrano[4,3-d]pyrimidin-2-yl)phenyl)boronic acid]	26	–	3084.657	2356.435	1240.242	1885.046	–	2141.595
O=c1[nH]c(-c2ccc(-c3ccc(B(O)O)cc3)cc2)nc2c1CSCC2 [Compound 10, (4′-(4-oxo-3,5,7,8-tetrahydro-4H-thiopyrano[4,3-d]pyrimidin-2-yl)-[1,1′-biphenyl]-4-yl)boronic acid]	3.29	41	3149.241	3038.880	2645.076	2623.098	–	2864.074
